Consider 34 compounds from patent US20250171465A1, “AKT INHIBITORS” (Stablix, Inc., priority 2023, published 2025).

The subject of experiment [1] is KU1919.1. Put plainly: Cell Titer Glo (CTG) proliferation assay, KU1919. As to conditions: Homo sapiens, KU-19-19; KU1919.1 cells, 72.0 hrs.; read-out: AVE CTG Proliferation KU1919.1 72.0 hrs. Format: cell-based. How it is done:
(§1) Seed cells in 40 μL of cell culture media into each well of 384-well cell culture plate, spin them at room temperature at 1,000 RPM for 1 minute and then transfer the plates into 37° C. 5% CO2 incubator overnight. Next day, treat cells with 40 nL of diluted compound and return to incubator. After compound treatment for 3 days, Add 30 μL of CellTiter-Glo reagent (Promega) into each well to be detected. Then place the plates at room temperature for 30 min followed by reading on EnVision. Inhibition activity calculated as % DMSO=100×(LumSample-Lum low control)/(Lum high control-Lum low control) where high control is from cells treated with 0.1% DMSO and Low control obtained from PBS only. Use XLFit (equation 201) to calculate IC50 (A+ ((B−A)/(1[…]((x/C)^D)))) where A: Bottom, B: Top, C: IC50, D: Slope.

For experiment [2], the system named is MDAMB468.1. Put plainly: Cell Titer Glo (CTG) proliferation assay, MDA-MB-468. As to conditions: Homo sapiens, MDA-MB-468; MDAMB468.1 cells, 72.0 hrs.; read-out: AVE CTG Proliferation MDAMB468.1 72.0 hrs. The experiment is classed as cell-based. On the procedure:
as §1

A value given as a limit tells only on which side of the number the result lay.

As for `CCc1cccc(-c2cnc(C(=O)N3CCC(CN4CCN(CC(=O)NCCNC[C@@H](C(=O)N5CCN(c6ncnc7c6[C@H](C)C[C@H]7O)CC5)c5ccc(Cl)cc5)CC4)CC3)c(NC(=O)CNCc3ccncn3)c2)c1` [Compound I-165], the IC50 in experiment [1] and in experiment [2] was > 10 µM in each case.

Turning to `CCc1cccc(-c2cnc(C(=O)N3CCC(OC4CCN(CC(=O)NCCNC[C@@H](C(=O)N5CCN(c6ncnc7c6[C@H](C)C[C@H]7O)CC5)c5ccc(Cl)cc5)CC4)CC3)c(NC(=O)CNCc3ccncn3)c2)c1` [Compound I-167], the IC50 in experiment [1] and in experiment [2] was > 10 µM each time.

On to `CCOc1cc(OC)ccc1CNCC(=O)N1CCCC(c2cccc(C(=O)N[C@@H](C(=O)N3CCN(CC4CCN(CC(=O)NCCN(C[C@@H](C(=O)N5CCN(c6nncc7c6[C@H](C)C[C@H]7O)CC5)c5ccc(Cl)cc5)C(C)C)CC4)CC3)C3CCCCC3)c2)C1` (some centres unmarked) [Compound I-171], for which the IC50 in experiment [1] lay in the range of 0.5 to 1 µM; in experiment [2], 1 to 5 µM.

On to `CCc1cccc(-c2cnc(C(=O)N3CCC(CN4CCN(CC(=O)NCCNC[C@@H](C(=O)N5CCN(c6ncnc7c6[C@H](C)C[C@H]7O)CC5)c5ccc(Cl)cc5)CC4)CC3)c(NC(=O)CN3CCOCC3)c2)c1` [Compound I-172], for which the IC50 in experiment [1] and in experiment [2] was 5 to 10 µM throughout.

Consider `CCc1cccc(-c2cnc(C(=O)N3CCN(CC4CCN(CC(=O)NCCNC[C@@H](C(=O)N5CCN(c6ncnc7c6[C@H](C)C[C@H]7O)CC5)c5ccc(Cl)cc5)CC4)CC3)c(NC(=O)CN3CCOCC3)c2)c1` [Compound I-173], for which the IC50 in experiment [1] and in experiment [2] was 1 to 5 µM in each case.

In the case of `CCc1cccc(-c2cnc(C(=O)N3CCC(OC4CCN(CC(=O)NCCNC[C@@H](C(=O)N5CCN(c6ncnc7c6[C@H](C)C[C@H]7O)CC5)c5ccc(Cl)cc5)CC4)CC3)c(NC(=O)CN3CCOCC3)c2)c1` [Compound I-174], the IC50 in experiment [1] and in experiment [2] was 1 to 5 µM in each case.

As for `CCc1cccc(-c2cnc(C(=O)N3CCN(CC45CCC(NCC(=O)NCCNC[C@@H](C(=O)N6CCN(c7ncnc8c7[C@H](C)C[C@H]8O)CC6)c6ccc(Cl)cc6)(CC4)CO5)CC3)c(NC(=O)CN3CCOCC3)c2)c1` [Compound I-175], the IC50 in experiment [1] and in experiment [2] was 1 to 5 µM each time.

As to `CCc1cccc(-c2cnc(C(=O)NCCOCCNCC[C@H](NC(=O)C3(N)CCN(c4ncnc5[nH]ccc45)CC3)c3ccc(Cl)cc3)c(N)c2)c1` [Compound I-183], the IC50 in experiment [1] and in experiment [2] was 5 to 10 µM throughout.

For `CCc1cccc(-c2cnc(C(=O)NCCOCCNCC[C@H](NC(=O)C3(N)CCN(c4ncnc5[nH]ccc45)CC3)c3ccc(Cl)cc3)c(NC(C)=O)c2)c1` [Compound I-184], the figures for the IC50 in experiment [1] and in experiment [2] were 5 to 10 µM and > 10 µM, respectively.

Consider `CCc1cccc(-c2cnc(C(=O)N3CCC(OC4CCN(CC(=O)NCCNC[C@@H](C(=O)N5CCN(c6ncnc7c6[C@H](C)C[C@H]7O)CC5)c5ccc(Cl)cc5)CC4)CC3)c(N)c2)c1` [Compound I-194], for which the IC50 in experiment [1] and in experiment [2] was 5 to 10 µM each time.

In the case of `CCc1cccc(-c2cnc(C(=O)N3CCN(CC45CCC(NCC(=O)NCCNC[C@@H](C(=O)N6CCN(c7ncnc8c7[C@H](C)C[C@H]8O)CC6)c6ccc(Cl)cc6)(CC4)CO5)CC3)c(N)c2)c1` [Compound I-195], the IC50 in experiment [1] and in experiment [2] was > 10 µM each time.

`CCc1cccc(-c2cnc(C(=O)N3CCN(CC45CCC(NCC(=O)NCCNC[C@@H](C(=O)N6CCN(c7ncnc8c7[C@H](C)C[C@H]8O)CC6)c6ccc(Cl)cc6)(CC4)CO5)CC3)c(NC(C)=O)c2)c1` [Compound I-197]: the IC50 fell in the range of 5 to 10 µM in experiment [1] and 1 to 5 µM in experiment [2].

Turning to `CC(C)N(CCNC(=O)CN1CCC(CN2CCN(C(=O)[C@H](NC(=O)c3cccc(C4CCCN(C(=O)CNCc5ccc(F)cc5F)C4)c3)C3CCCCC3)CC2)CC1)C[C@@H](C(=O)N1CCN(c2ncnc3c2[C@H](C)C[C@H]3O)CC1)c1ccc(Cl)cc1` (some centres unmarked) [Compound I-200], the IC50 in experiment [1] and in experiment [2] was 1 to 5 µM throughout.

On to `C=CC(=O)N1CCN(c2ccc(CCC(=O)N3CCC(OC4CCN(CC[C@H](NC(=O)C5(N)CCN(c6ncnc7[nH]ccc67)CC5)c5ccc(Cl)cc5)CC4)CC3)o2)C(=O)C1` [Compound I-285], for which the IC50 in experiment [1] is > 10 µM.

`C=CC(=O)N1CCN(c2ccc(CCC(=O)N3CCN(CC4CCN(CC[C@H](NC(=O)C5(N)CCN(c6ncnc7[nH]ccc67)CC5)c5ccc(Cl)cc5)CC4)CC3)o2)C(=O)C1` [Compound I-286]: the IC50 in experiment [1] was in the range of 1 to 5 µM.

Turning to `C=CC(=O)N1CCN(c2ccc(CCC(=O)NCCOCCNCC[C@H](NC(=O)C3(N)CCN(c4ncnc5[nH]ccc45)CC3)c3ccc(Cl)cc3)o2)C(=O)C1` [Compound I-287], the IC50 in experiment [1] was > 10 µM.

Turning to `NC1(C(=O)N[C@@H](CCN2CCC(OC3CCN(C(=O)[C@H](NC(=O)c4cccc(C5CCN(C(=O)C6CC6)CC5)c4F)C4CCCCC4)CC3)CC2)c2ccc(Cl)cc2)CCN(c2ncnc3[nH]ccc23)CC1` [Compound I-288], the IC50 in experiment [1] lay within 1 to 5 µM.

Consider `NC1(C(=O)N[C@@H](CCN2CCC(OC3CCN(C(=O)c4cccc(C5CCCN(C(=O)CNCc6ccc(F)cc6F)C5)c4F)CC3)CC2)c2ccc(Cl)cc2)CCN(c2ncnc3[nH]ccc23)CC1` (some centres unmarked) [Compound I-289], for which the IC50 in experiment [1] lay within 1 to 5 µM.

In the case of `NC1(C(=O)N[C@@H](CCN2CCC(OC3CCN(C(=O)c4cccc(C5CCCN(C(=O)C6CC6)C5)c4F)CC3)CC2)c2ccc(Cl)cc2)CCN(c2ncnc3[nH]ccc23)CC1` (some centres unmarked) [Compound I-290], the IC50 in experiment [1] lay in the range of 1 to 5 µM.

With `C[C@@H]1C[C@@H](O)c2ncnc(N3CCN(C(=O)[C@H](CN4CCC(OC5CCN(C(=O)[C@H](NC(=O)c6cccc(C7CCCN(C(=O)C8(C)CC8)C7)c6F)C6CCCCC6)CC5)CC4)c4ccc(Cl)cc4)CC3)c21` (some centres unmarked) [Compound I-291], in experiment [1], the IC50 is 1 to 5 µM.

For `C[C@@H]1C[C@@H](O)c2ncnc(N3CCN(C(=O)[C@H](CN4CCC(OC5CCN(C(=O)[C@H](NC(=O)c6cccc(C7CCCN(C(=O)C89CC(C8)C9)C7)c6F)C6CCCCC6)CC5)CC4)c4ccc(Cl)cc4)CC3)c21` (some centres unmarked) [Compound I-292], the IC50 in experiment [1] was in the range of 1 to 5 µM.

Consider `NC1(C(=O)N[C@@H](CCOCCN2CCC(OC3CCN(C(=O)[C@H](NC(=O)c4cccc(C5CCCN(C(=O)C67CC(C6)C7)C5)c4)C4CCCCC4)CC3)CC2)c2ccc(Cl)cc2)CCN(c2ncnc3[nH]ccc23)CC1` (some centres unmarked) [Compound I-293], for which the IC50 in experiment [1] was in the range of 1 to 5 µM.

Take `CC1(C(=O)N2CCCC(c3cccc(C(=O)N[C@@H](C(=O)N4CCC(OC5CCN(CCOCC[C@H](NC(=O)C6(N)CCN(c7ncnc8[nH]ccc78)CC6)c6ccc(Cl)cc6)CC5)CC4)C4CCCCC4)c3)C2)CC1` (some centres unmarked) [Compound I-294]: the IC50 in experiment [1] fell in the range of 1 to 5 µM.

Take `NC1(C(=O)N[C@@H](CCOCCN2CCC(OC3CCN(C(=O)[C@H](NC(=O)c4cccc(C5CCCN(C(=O)CNC6CC6)C5)c4)C4CCCCC4)CC3)CC2)c2ccc(Cl)cc2)CCN(c2ncnc3[nH]ccc23)CC1` (some centres unmarked) [Compound I-295]: in experiment [1], the IC50 is 1 to 5 µM.

Regarding `NC1(C(=O)N[C@@H](CCOCCCCCNC(=O)[C@H](NC(=O)c2cccc(C3CCCN(C(=O)C45CC(C4)C5)C3)c2)C2CCCCC2)c2ccc(Cl)cc2)CCN(c2ncnc3[nH]ccc23)CC1` (some centres unmarked) [Compound I-296], in experiment [1], the IC50 is > 10 µM.

In the case of `CC1(C(=O)N2CCCC(c3cccc(C(=O)N[C@@H](C(=O)NCCCCCOCC[C@H](NC(=O)C4(N)CCN(c5ncnc6[nH]ccc56)CC4)c4ccc(Cl)cc4)C4CCCCC4)c3)C2)CC1` (some centres unmarked) [Compound I-297], in experiment [1], the IC50 was in the range of 5 to 10 µM.

As for `NC1(C(=O)N[C@@H](CCOCCCCCNC(=O)[C@H](NC(=O)c2cccc(C3CCCN(C(=O)CNC4CC4)C3)c2)C2CCCCC2)c2ccc(Cl)cc2)CCN(c2ncnc3[nH]ccc23)CC1` (some centres unmarked) [Compound I-298], the IC50 in experiment [1] was in the range of 1 to 5 µM.

`CC(C)(C)OC(=O)N[C@@H](C(=O)N1CCN(CC23CCC(C(=O)N4CCN(CC[C@H](NC(=O)C5(N)CCN(c6ncnc7[nH]ccc67)CC5)c5ccc(Cl)cc5)CC4)(CC2)CO3)CC1)C1CCCCC1` [Compound I-308]: the IC50 in experiment [1] lay within 1 to 5 µM.

For `CC(C)(C)OC(=O)N[C@@H](C(=O)NCCCCS(=O)(=O)NCC[C@H](NC(=O)C1(N)CCN(c2ncnc3[nH]ccc23)CC1)c1ccc(Cl)cc1)C1CCCCC1` [Compound I-309], the IC50 in experiment [1] was in the range of 1 to 5 µM.

Turning to `CC(C)(C)OC(=O)N[C@@H](C(=O)N1CCC(OC2CCN(CC[C@H](NC(=O)C3(N)CCN(c4ncnc5[nH]ccc45)CC3)c3ccc(Cl)cc3)CC2)CC1)C1CCCCC1` [Compound I-311], in experiment [1], the IC50 was in the range of 0.5 to 1 µM.

Regarding `CC(C)(C)OC(=O)N[C@@H](C(=O)NCC[C@H](NC(=O)C1(N)CCN(c2ncnc3[nH]ccc23)CC1)c1ccc(Cl)cc1)C1CCCCC1` [Compound I-313], the IC50 in experiment [1] fell in the range of 1 to 5 µM.

Regarding `C[C@@H]1C[C@@H](O)c2ncnc(N3CCN(C(=O)[C@H](CNCCNC(=O)CN4CCC(OC5CCN(C(=O)OC(C)(C)C)CC5)CC4)c4ccc(Cl)cc4)CC3)c21` [Compound I-314], the IC50 in experiment [1] was 1 to 5 µM.

With `CC(C)(C)OC(=O)N1CCC(OC2CCN(CC[C@H](NC(=O)C3(N)CCN(c4ncnc5[nH]ccc45)CC3)c3ccc(Cl)cc3)CC2)CC1` [Compound I-316], the IC50 in experiment [1] was in the range of 1 to 5 µM.

As to `C[C@@H]1C[C@@H](O)c2ncnc(N3CCN(C(=O)[C@H](CNCCNC(=O)CNC45CCC(CN6CCN(C(=O)[C@H](NC(=O)c7cccc(C8CCCN(C(=O)CNC9CC9)C8)c7)C7CCCCC7)CC6)(CC4)OC5)c4ccc(Cl)cc4)CC3)c21` (some centres unmarked) [Compound I-326], the IC50 in experiment [1] was 5 to 10 µM.
